Assays:
[1] = tested on: HDACs (HeLa cell nuclear extracts); assay: HDAC enzymatic activity, Biomol Color de Lys system; type: biochemical; settings: 1 hour, 25° C.
Outline: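 IC50 from sigmoidal fit of developer-terminated fluorescence (ex 350-380/em 440-460 nm). Reaction: 1 h at room temperature (25 °C), HeLa nuclear extract as HDAC source, artificial substrate, buffer of 50 mM Tris/Cl pH 8.0 with 137 mM NaCl, 2.7 mM KCl and 1 mM MgCl2.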

PI3Kα (p110α/p85α) = target: T1, PI3Kα (p110α/p85α) (Homo sapiens, UniProt P42336); assay: PI3Kα ADP-Glo assay; type: biochemical; settings: 20 μM PIP2, 10 μM ATP, 30 minutes
T1 construct: GST (N); made in house; host or cells: Baculovirus-infected Sf9 cells
T1 sequence (P42336 whole entry): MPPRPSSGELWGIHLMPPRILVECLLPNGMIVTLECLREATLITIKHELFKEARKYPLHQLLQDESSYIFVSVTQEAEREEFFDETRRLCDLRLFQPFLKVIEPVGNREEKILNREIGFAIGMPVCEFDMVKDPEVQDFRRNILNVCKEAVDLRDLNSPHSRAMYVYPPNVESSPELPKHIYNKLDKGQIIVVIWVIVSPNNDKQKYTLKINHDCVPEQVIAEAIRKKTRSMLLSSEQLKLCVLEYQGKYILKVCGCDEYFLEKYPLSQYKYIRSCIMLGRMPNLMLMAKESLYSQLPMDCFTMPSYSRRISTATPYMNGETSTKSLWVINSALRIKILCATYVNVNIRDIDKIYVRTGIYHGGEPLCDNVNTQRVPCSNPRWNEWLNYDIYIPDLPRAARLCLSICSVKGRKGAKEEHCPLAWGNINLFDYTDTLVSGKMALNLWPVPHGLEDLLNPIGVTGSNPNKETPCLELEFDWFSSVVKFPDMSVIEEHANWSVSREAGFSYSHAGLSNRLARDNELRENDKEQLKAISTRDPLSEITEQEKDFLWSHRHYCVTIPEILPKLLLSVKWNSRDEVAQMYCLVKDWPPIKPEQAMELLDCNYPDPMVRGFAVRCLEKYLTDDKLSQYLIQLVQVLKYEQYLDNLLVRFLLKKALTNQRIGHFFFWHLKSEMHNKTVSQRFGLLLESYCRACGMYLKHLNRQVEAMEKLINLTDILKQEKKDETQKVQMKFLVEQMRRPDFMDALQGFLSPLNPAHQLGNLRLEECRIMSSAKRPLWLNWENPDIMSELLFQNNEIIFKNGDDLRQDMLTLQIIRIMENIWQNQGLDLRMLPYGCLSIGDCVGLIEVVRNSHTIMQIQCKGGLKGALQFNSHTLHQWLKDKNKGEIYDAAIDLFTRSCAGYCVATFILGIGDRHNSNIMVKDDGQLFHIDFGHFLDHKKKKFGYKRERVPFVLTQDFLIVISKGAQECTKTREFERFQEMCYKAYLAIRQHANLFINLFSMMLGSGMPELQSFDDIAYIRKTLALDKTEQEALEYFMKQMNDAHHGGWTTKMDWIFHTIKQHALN
T1 sequence (P27986 whole entry partner): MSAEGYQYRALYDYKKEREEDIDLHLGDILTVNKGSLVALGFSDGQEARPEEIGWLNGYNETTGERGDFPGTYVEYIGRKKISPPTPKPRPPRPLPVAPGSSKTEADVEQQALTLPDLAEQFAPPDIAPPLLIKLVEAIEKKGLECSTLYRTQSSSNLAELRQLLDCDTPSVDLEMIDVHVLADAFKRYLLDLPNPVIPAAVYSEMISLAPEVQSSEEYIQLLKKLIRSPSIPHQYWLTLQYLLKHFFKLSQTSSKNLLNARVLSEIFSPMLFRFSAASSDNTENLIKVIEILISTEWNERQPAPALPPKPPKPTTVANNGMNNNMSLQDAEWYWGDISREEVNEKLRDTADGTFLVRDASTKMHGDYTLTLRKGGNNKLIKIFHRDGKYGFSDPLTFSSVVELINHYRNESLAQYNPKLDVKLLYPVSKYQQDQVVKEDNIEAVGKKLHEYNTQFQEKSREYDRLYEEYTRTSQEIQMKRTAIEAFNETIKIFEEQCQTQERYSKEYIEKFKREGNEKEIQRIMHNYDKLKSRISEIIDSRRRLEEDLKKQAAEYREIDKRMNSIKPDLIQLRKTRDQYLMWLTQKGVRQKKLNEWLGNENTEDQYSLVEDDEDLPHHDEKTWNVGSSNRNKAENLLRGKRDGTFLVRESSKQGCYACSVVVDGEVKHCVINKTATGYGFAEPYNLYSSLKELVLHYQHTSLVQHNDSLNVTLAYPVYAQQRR
Outline: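 Luminescent ADP-Glo detection, after depletion of residual ATP, quantified ADP made by PI3Kα phosphorylating 20 μM PIP2 at 10 μM ATP. The kinase step ran 30 min at room temperature in HEPES pH 7.4 with MgCl2, DTT and orthovanadate, using baculovirus/Sf9-expressed full-length p110α/p85α complex.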

CFPAC-1 = assay: Cell proliferation assay (CellTiter-Glo); type: cell-based; settings: Homo sapiens, Pancreas, 72 hours, 0.5% fetal bovine serum, read-out: antiproliferative activity IC50, CFPAC-1
Protocol: (§1) Cell Proliferation Assay:
(§2) Cancer cell lines were plated at 5,000 to 10,000 per well in 96-well flat bottomed plates with various concentration of compounds. The cells were incubated with compounds for 72 hours in the presence of 0.5% of fetal bovine serum. Growth inhibition was accessed by adenosine triphosphate (ATP) content assay using Promega CellTiter-Glo kit. Promega CellTiter-Glo kit is an ATP monitoring system based on firefly luciferase. Briefly, 16 μl of mammalian cell lysis and substrate solution was added to 84 μl of culture medium per well to lyse the cells and stabilize the ATP. The mixture was shaken and incubated for 30 minutes and subsequently the luminescence was measured.

CaPan2 = assay: Cell proliferation assay (CellTiter-Glo); type: cell-based; settings: Homo sapiens, Capan-2; Pancreas; 72 hours, 0.5% fetal bovine serum; read-out: antiproliferative activity IC50, CaPan2
Protocol: as §1, §2

Calu6 = assay: Cell proliferation assay (CellTiter-Glo); type: cell-based; settings: Homo sapiens, Calu-6; NSCLC; 72 hours, 0.5% fetal bovine serum; read-out: antiproliferative activity IC50, Calu6
Protocol: as §1, §2

MDA-MB-231 = assay: Cell proliferation assay (CellTiter-Glo); type: cell-based; settings: Homo sapiens, Breast, 72 hours, 0.5% fetal bovine serum, read-out: antiproliferative activity IC50, MDA-MB-231
Protocol: as §1, §2

MiaPaca1 = assay: Cell proliferation assay (CellTiter-Glo); type: cell-based; settings: Pancreas; 72 hours, 0.5% fetal bovine serum; read-out: antiproliferative activity IC50, MiaPaca1
Protocol: as §1, §2

PANC-1 = assay: Cell proliferation assay (CellTiter-Glo); type: cell-based; settings: Homo sapiens, Pancreas, 72 hours, 0.5% fetal bovine serum, read-out: antiproliferative activity IC50, PANC-1
Protocol: as §1, §2

SW1990 = assay: Cell proliferation assay (CellTiter-Glo); type: cell-based; settings: Homo sapiens, Pancreas, 72 hours, 0.5% fetal bovine serum, read-out: antiproliferative activity IC50, SW1990
Protocol: as §1, §2

WiDr = assay: Cell proliferation assay (CellTiter-Glo); type: cell-based; settings: Homo sapiens, Colon, 72 hours, 0.5% fetal bovine serum, read-out: antiproliferative activity IC50, WiDr
Protocol: as §1, §2

[2] = target: T2, mTor serine/threonine protein kinase (Homo sapiens, UniProt P42345); assay: mTor kinase radioisotope assay; type: biochemical; settings: 70 uM ATP, 40 minutes; read-out: m-TOR IC50
T2 construct: FLAG; made in house; host or cells: Baculovirus expression system in Sf21 cells
Protocol: (F) an In Vitro Assay which-Determines the Ability of a Test Compound to Inhibit mTor Serine/Threonine Protein Kinase.
The ability of compounds to inhibit mTor activity was assayed using standard radioisotope assay for kinase. Briefly, FLAG-tagged, recombinant full-length human mTor (GenBank accession No. NM_004958) was expressed using baculovirus expression system in Sf21 cells and purified using antibody affinity column. Purified enzyme was incubated with c-terminal fragment of p70S6K as it's substrate in the presence of ATP. p33 ATP tracers were included in the assay to monitor the enzyme activity. Final assay condition was with 50 mM HEPES pH 7.5, 1 mM EGTA, 0.01% Tween 20, 2 mg/ml substrate, 3 mM Manganese Chloride and 70 uM of ATP and was carried out at room temperature for 40 minutes. The reaction was then stopped by the addition of 3% phosphoric acid solution. 10 ul of the reaction was spotted onto a P30 filtermat and washed three times for 5 minutes in 75 mM phosphoric acid and once in methanol prior to drying and scintillation counting. Different concentrations of compounds were added to reaction to assess the activity of compounds to inhibit mTor kinase. IC50 was calculated using Prism software with sigmoidal dose-response curve fitting.

A549 = assay: Cell proliferation assay (CellTiter-Glo); type: cell-based; settings: Homo sapiens, NSCLC, 72 hours, 0.5% fetal bovine serum, read-out: antiproliferative activity IC50, A549
Protocol: as §1, §2

H2122 = assay: Cell proliferation assay (CellTiter-Glo); type: cell-based; settings: Homo sapiens, NCI-H2122; NSCLC; 72 hours, 0.5% fetal bovine serum; read-out: antiproliferative activity IC50, H2122
Protocol: as §1, §2

H358 = assay: Cell proliferation assay (CellTiter-Glo); type: cell-based; settings: Homo sapiens, NCI-H358; NSCLC; 72 hours, 0.5% fetal bovine serum; read-out: antiproliferative activity IC50, H358
Protocol: as §1, §2

H460 = assay: Cell proliferation assay (CellTiter-Glo); type: cell-based; settings: Homo sapiens, NCI-H460; NSCLC; 72 hours, 0.5% fetal bovine serum; read-out: antiproliferative activity IC50, H460
Protocol: as §1, §2

HCT116 = assay: Cell proliferation assay (CellTiter-Glo); type: cell-based; settings: Homo sapiens, HCT-116; Colon; 72 hours, 0.5% fetal bovine serum; read-out: antiproliferative activity IC50, HCT116
Protocol: as §1, §2

H292 = assay: Cell proliferation assay (CellTiter-Glo); type: cell-based; settings: Homo sapiens, NCI-H292; NSCLC; 72 hours, 0.5% fetal bovine serum; read-out: antiproliferative activity IC50, H292
Protocol: as §1, §2

CC(=O)Nc1ccc(-c2nc(N3CCOCC3)c3sc(CN(C)c4ncc(C(=O)NO)cn4)cc3n2)cn1 [Compound 112, 2-(((2-(6-acetamidopyridin-3-yl)-4-morpholinothieno[3,2-d]pyrimidin-6-yl)methyl)(methyl)amino)-N-hydroxypyrimidine-5-carboxamide]
IC50 [1]: < 100 nM
IC50 (PI3Kα (p110α/p85α)): < 100 nM
IC50 (CFPAC-1): 100 to 1000 nM
IC50 (CaPan2): 100 to 1000 nM
IC50 (Calu6): 10 to 100 nM
IC50 (MDA-MB-231): 10 to 100 nM
IC50 (MiaPaca1): 10 to 100 nM
IC50 (PANC-1): 10 to 100 nM
IC50 (SW1990): 10 to 100 nM
IC50 (WiDr): 100 to 1000 nM
melting point: 197 to 201 °C

CNc1ncc(-c2nc(N3CCOCC3)c3sc(CN(C)c4ncc(C(=O)NO)cn4)cc3n2)cn1 [Compound 116, N-hydroxy-2-(methyl((2-(2-(methylamino)pyrimidin-5-yl)-4-morpholinothieno[3,2-d]pyrimidin-6-yl)methyl)amino)pyrimidine-5-carboxamide]
IC50 [1]: < 100 nM
IC50 (PI3Kα (p110α/p85α)): < 100 nM
IC50 [2]: < 100 nM
IC50 (CFPAC-1): 100 to 1000 nM
IC50 (CaPan2): 10 to 100 nM
IC50 (Calu6): 10 to 100 nM
IC50 (MDA-MB-231): 10 to 100 nM
IC50 (MiaPaca1): 10 to 100 nM
IC50 (PANC-1): 10 to 100 nM
IC50 (SW1990): 10 to 100 nM
IC50 (WiDr): 10 to 100 nM
melting point: 183 to 187 °C

Cc1ncc(-c2nc(N3CCOCC3)c3sc(CN(C)c4ncc(C(=O)NO)cn4)cc3n2)cn1 [Compound 120, N-hydroxy-2-(methyl((2-(2-methylpyrimidin-5-yl)-4-morpholinothieno[3,2-d]pyrimidin-6-yl)methyl)amino)pyrimidine-5-carboxamide]
IC50 [1]: < 100 nM
IC50 (PI3Kα (p110α/p85α)): < 100 nM
IC50 [2]: 100 to 1000 nM
IC50 (CFPAC-1): 100 to 1000 nM
IC50 (CaPan2): 100 to 1000 nM
IC50 (Calu6): 10 to 100 nM
IC50 (MDA-MB-231): 10 to 100 nM
IC50 (MiaPaca1): 10 to 100 nM
IC50 (PANC-1): 100 to 1000 nM
IC50 (SW1990): 10 to 100 nM
IC50 (WiDr): 10 to 100 nM
melting point: 184 to 186 °C

CN(Cc1cc2nc(-c3ccc4[nH]cnc4c3)nc(N3CCOCC3)c2s1)c1ncc(C(=O)NO)cn1 [Compound 187, 2-(((2-(1H-benzo[d]imidazol-5-yl)-4-morpholinothieno[3,2-d]pyrimidin-6-yl)methyl)(methyl)amino)-N-hydroxypyrimidine-5-carboxamide]
IC50 [1]: < 100 nM
IC50 (PI3Kα (p110α/p85α)): < 100 nM
IC50 (CFPAC-1): 100 to 1000 nM
IC50 (CaPan2): 100 to 1000 nM
IC50 (Calu6): 100 to 1000 nM
IC50 (MDA-MB-231): 100 to 1000 nM
IC50 (MiaPaca1): 10 to 100 nM
IC50 (PANC-1): 100 to 1000 nM
IC50 (SW1990): 10 to 100 nM
IC50 (WiDr): 10 to 100 nM
melting point: 231 to 239 °C

CN(Cc1cc2nc(-c3ccc(N)cc3Cl)nc(N3CCOCC3)c2s1)c1ncc(C(=O)NO)cn1 [Compound 284, 2-(((2-(4-Amino-2-chlorophenyl)-4-morpholinothieno[3,2-d]pyrimidin-6-yl)methyl)(methyl)amino)-N-hydroxypyrimidine-5-carboxamide]
IC50 [1]: < 100 nM
IC50 (PI3Kα (p110α/p85α)): < 100 nM
IC50 (A549): 10 to 100 nM
IC50 (H2122): < 10 nM
IC50 (H358): < 10 nM
IC50 (H460): 10 to 100 nM
IC50 (HCT116): < 10 nM
IC50 (MiaPaca1): 10 to 100 nM
IC50 (WiDr): 10 to 100 nM
melting point: 179 to 183 °C

CN(Cc1cc2nc(-c3cccc(OCCO)c3)nc(N3CCOCC3)c2s1)c1ncc(C(=O)NO)cn1 [Compound 289, 2-({2-[3-(2-Hydroxy-ethoxy)-phenyl]-4-morpholin-4-yl-thieno[3,2-d]pyrimidin-6-ylmethyl}-methyl-amino)-pyrimidine-5-carboxylic acid hydroxyamide]
IC50 [1]: < 100 nM
IC50 (PI3Kα (p110α/p85α)): < 100 nM
IC50 (A549): 10 to 100 nM
IC50 (H2122): < 10 nM
IC50 (H292): < 10 nM
IC50 (H358): < 10 nM
IC50 (H460): 10 to 100 nM
IC50 (HCT116): < 10 nM
IC50 (MiaPaca1): < 10 nM
IC50 (WiDr): < 10 nM
melting point: 148 to 152 °C

CN(Cc1cc2nc(-c3cc(O)ccc3F)nc(N3CCOCC3)c2s1)c1ncc(C(=O)NO)cn1 [Compound 292, 2-(((2-(2-Fluoro-5-hydroxyphenyl)-4-morpholinothieno[3,2-d]pyrimidin-6-yl)methyl)(methyl)amino)-N-hydroxypyrimidine-5-carboxamide]
IC50 [1]: < 100 nM
IC50 (PI3Kα (p110α/p85α)): < 100 nM
IC50 [2]: < 100 nM
IC50 (A549): 100 to 1000 nM
IC50 (H2122): 10 to 100 nM
IC50 (H358): 10 to 100 nM
IC50 (H460): 10 to 100 nM
IC50 (HCT116): 10 to 100 nM
IC50 (MiaPaca1): 10 to 100 nM
IC50 (WiDr): 10 to 100 nM
melting point: 250 to 255 °C

CC(O)c1cccc(-c2nc(N3CCOCC3)c3sc(CN(C)c4ncc(C(=O)NO)cn4)cc3n2)c1 (stereo not shown) [Compound 294, N-Hydroxy-2-(((2-(3-(1-hydroxyethyl)phenyl)-4-morpholinothieno[3,2-d]pyrimidin-6-yl)methyl)(methyl)amino)pyrimidine-5-carboxamide]
IC50 [1]: < 100 nM
IC50 (PI3Kα (p110α/p85α)): < 100 nM
IC50 [2]: 100 to 1000 nM
IC50 (A549): 10 to 100 nM
IC50 (H2122): < 10 nM
IC50 (H292): 10 to 100 nM
IC50 (H358): < 10 nM
IC50 (H460): 10 to 100 nM
IC50 (HCT116): < 10 nM
IC50 (MiaPaca1): < 10 nM
IC50 (WiDr): 10 to 100 nM

CNc1ccc(-c2nc(N3CCOCC3)c3sc(C(=O)NCC4CCN(c5ncc(C(=O)NO)cn5)CC4)cc3n2)cn1 [Compound 308, N-((1-(5-(Hydroxycarbamoyl)pyrimidin-2-yl)piperidin-4-yl)methyl)-2-(6-(methylamino)pyridin-3-yl)-4-morpholinothieno[3,2-d]pyrimidine-6-carboxamide]
IC50 [1]: < 100 nM
IC50 (PI3Kα (p110α/p85α)): < 100 nM
IC50 (A549): 100 to 1000 nM
IC50 (H2122): 100 to 1000 nM
IC50 (H292): 100 to 1000 nM
IC50 (H358): 100 to 1000 nM
IC50 (H460): 100 to 1000 nM
IC50 (HCT116): 100 to 1000 nM
IC50 (MiaPaca1): 100 to 1000 nM
IC50 (WiDr): 100 to 1000 nM
melting point: 215 to 218 °C
